From patent US20030176314A1, “Compounds for the treatment of pain” (priority 2001, published 2003)

Assays:
[1] = target: T1, human α1A adrenergic receptor (Homo sapiens, UniProt P35348); test: Binding at human α1A adrenergic receptor; conditions: Table 8; read-out: hα1A Ki
T1 construct: host or cells: LM(tk-) cells, line L-α1C
T1 sequence (P35348 1-466): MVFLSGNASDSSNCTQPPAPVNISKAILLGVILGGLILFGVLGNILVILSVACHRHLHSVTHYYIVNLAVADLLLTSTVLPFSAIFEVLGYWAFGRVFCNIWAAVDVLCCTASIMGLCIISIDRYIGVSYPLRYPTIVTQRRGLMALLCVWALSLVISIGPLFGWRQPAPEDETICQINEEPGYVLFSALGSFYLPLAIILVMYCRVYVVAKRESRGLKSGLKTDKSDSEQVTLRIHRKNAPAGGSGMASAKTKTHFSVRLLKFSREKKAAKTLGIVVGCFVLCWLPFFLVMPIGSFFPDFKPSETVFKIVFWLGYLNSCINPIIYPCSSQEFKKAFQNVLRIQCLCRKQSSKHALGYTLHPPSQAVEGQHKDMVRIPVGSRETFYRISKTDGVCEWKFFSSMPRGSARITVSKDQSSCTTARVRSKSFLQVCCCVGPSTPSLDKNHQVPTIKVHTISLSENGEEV
Description: α1 Human Adrenergic Receptors: To determine the binding of compounds to human α1 receptors, LM(tk−) cell lines stably transfected with the genes encoding the α1a, α1b, and α1d receptors were used. The nomenclature describing the α1 receptors was changed recently, such that the receptor formerly designated α1a is now designated α1d, and the receptor formerly designated α1c is now designated α1a. The cell lines expressing these receptors were deposited with the ATCC before the nomenclature change and reflect the subtype designations formerly assigned to these receptors. Thus, the cell line expressing the receptor described herein as the α1a receptor was deposited with the ATCC on Sep. […] The cell line expressing receptor described herein as the α1d receptor was deposited with the ATCC on Sep. […] The cell line expressing the α1b receptor is designated L-α1B, and was deposited on Sep.
(§1) The binding affinity (Ki) of these compounds were tested according to the protocols described herein at the following receptors; human α1A, α1B, α1D, α2A, α2B, and α2C adrenergic receptors; human Y1, Y2, Y4, and Y5 receptors; and N-Methyl-D-aspartic acid (NMDA) receptor channels. The binding interactions of these compounds were additionally tested at the norepinephrine (NE) transporter (NE uptake) and serotonin (5-hydroxytryptamine (5HT)) transporter (5HT uptake) according to protocols described herein

[2] = test system: distension induced contractions of the rat bladder; test: Distension-induced rhythmic contraction (DIRC) model, micturition reflex in anesthetized rats; format: in vivo
Description: This model is widely considered to be predictive for the actions of drugs to treat human urge incontinence (also refered to as detrusor instability or unstable bladder). Examples of drugs that are active in this model which also are used therapeutically in humans include oxybutynin and baclofen (Morikawa et al, 1992); imipramine and nortriptyline (Pietra et al, 1990); and nifedipine and terodiline (Guarneri et al, 1993).
Female Sprague Dawley rats weighing approximately 300 g were anesthetized with subcutaneous urethane (1.2 g/kg). The trachea was cannulated with PE240 tubing to provide a clear airway throughout the experiment. A midline abdominal incision was made and the left and right ureters were isolated. The ureters were ligated distally (to prevent escape of fluids from the bladder) and cannulated proximally with PE10 tubing. The incision was closed using 4-0 silk sutures, leaving the PE10 lines routed to the exterior for the elimination of urine. The bladder was canulated via the transurethral route using PE50 tubing inserted 2.5 cm beyond the urethral opening. This cannula was secured to the tail using tape and connected to a pressure transducer. To prevent leakage from the bladder, the cannula was tied tightly to the exterior urethral opening using 4-0 silk.
To initiate the micturition reflex, the bladder was first emptied by applying pressure to the lower abdomen, and then filled with normal saline in 100 μl increments (maximum=2 ml) until spontaneous bladder contractions occurred (typically 20-40 mmHg at a rate of one contraction every 2 to 3 minutes. Once a regular rhythm was established, vehicle (saline) or test compounds were administered i.v. to examine their effects on bladder activity. The effect of a compound which inhibited the micturition reflex was expressed as its “disappearance time”, defined as the time between successive bladder contractions in the presence of the test compound minus the time between contractions before compound administration.

[3] = target: T2, human α2B adrenergic receptor (Homo sapiens, UniProt P18089); test: Binding at human α2B adrenergic receptor; conditions: Table 8; read-out: hα2B Ki
T2 construct: host or cells: LM(tk-) cells, line L-NGC-α2B
T2 sequence (P18089 1-450): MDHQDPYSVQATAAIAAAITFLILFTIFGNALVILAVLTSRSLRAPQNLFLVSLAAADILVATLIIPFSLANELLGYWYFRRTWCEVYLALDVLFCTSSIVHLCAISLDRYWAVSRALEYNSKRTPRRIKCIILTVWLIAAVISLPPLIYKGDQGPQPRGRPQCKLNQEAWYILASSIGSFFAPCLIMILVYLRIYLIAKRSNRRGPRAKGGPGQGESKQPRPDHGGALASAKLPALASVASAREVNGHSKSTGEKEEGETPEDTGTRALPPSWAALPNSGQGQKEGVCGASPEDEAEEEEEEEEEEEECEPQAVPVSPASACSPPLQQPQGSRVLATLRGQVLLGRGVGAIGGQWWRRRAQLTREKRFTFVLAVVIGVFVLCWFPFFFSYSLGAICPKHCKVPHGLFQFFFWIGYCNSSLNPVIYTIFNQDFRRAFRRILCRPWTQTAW
Description: α2 Human Adrenergic Receptors: To determine the binding of compounds to human α2 receptors, LM(tk−) cell lines stably transfected with the genes encoding the α2A, α2B, and α2C receptors were used. The cell line expressing the α2A receptor is designated L-α2A, and was deposited on Nov. 6, 1992, under ATCC Accession No. CRL 11180. The cell line expressing the α2B receptor is designated L-NGC-α2B, and was deposited on Oct. 25, 1989, under ATCC Accession No. CRL 10275. The cell line expressing the α2C receptor is designated L-α2C, and was deposited on Nov. 6, 1992, under ATCC Accession No. CRL-11181. Cell lysates were prepared as described herin, and suspended in 25 mM glycyiglycine buffer (pH 7.6 at room temperature). Equilibrium competition binding assay were performed using […] (0.5 nM), and nonspecific binding was determined by incubation with 10 μM phentolamine. The bound radioligand was separated by filtration through GF/B filters using a cell harvester.
as §1

Ki [3] [µM]	SMILES	Ki [1] [µM]	inhibition of distention-induced contractions of the rat bladder ([2]; 1 mg/kg, i.v.)	time for which inhibition of bladder activity persisted ([2]; i.v. administration, anesthetized rat (figure legends)) [min]
–	Cc1nc(NC(=N)N)nc2ccc3ccccc3c12 [Compound 1007A]	3.27	–	–
3.75	Cc1cc(NC(=N)N)nc2ccc(Cl)cc12 [Compound 4005A, N-(6-chloro-4-methyl-2-quinolinyl)guanidine]	–	complete inhibition	35
